Source: patent US20100204340A1 (priority 2009, published 2010)
Values after ≈ are worked out from the molar mass of the structure shown. Read-outs that look alike come from different tables or passages of the source.

Experiments:
SIRT1 polypeptide = biological target: T1, SIRT1 polypeptide (Homo sapiens, UniProt Q96EB6); assay: SIRT 1 Direct fluorescent Screening Assay kit (Cayman); format: biochemical; settings: read-out: Percentage SIRT 1 modulation; for activation at 1 µg/mL: 1 μg/ml; for activation at 10 µg/mL: 10 μg/ml
T1 construct: purchased Cayman Chemical Company 10010401
T1 sequence (Q96EB6 1-747): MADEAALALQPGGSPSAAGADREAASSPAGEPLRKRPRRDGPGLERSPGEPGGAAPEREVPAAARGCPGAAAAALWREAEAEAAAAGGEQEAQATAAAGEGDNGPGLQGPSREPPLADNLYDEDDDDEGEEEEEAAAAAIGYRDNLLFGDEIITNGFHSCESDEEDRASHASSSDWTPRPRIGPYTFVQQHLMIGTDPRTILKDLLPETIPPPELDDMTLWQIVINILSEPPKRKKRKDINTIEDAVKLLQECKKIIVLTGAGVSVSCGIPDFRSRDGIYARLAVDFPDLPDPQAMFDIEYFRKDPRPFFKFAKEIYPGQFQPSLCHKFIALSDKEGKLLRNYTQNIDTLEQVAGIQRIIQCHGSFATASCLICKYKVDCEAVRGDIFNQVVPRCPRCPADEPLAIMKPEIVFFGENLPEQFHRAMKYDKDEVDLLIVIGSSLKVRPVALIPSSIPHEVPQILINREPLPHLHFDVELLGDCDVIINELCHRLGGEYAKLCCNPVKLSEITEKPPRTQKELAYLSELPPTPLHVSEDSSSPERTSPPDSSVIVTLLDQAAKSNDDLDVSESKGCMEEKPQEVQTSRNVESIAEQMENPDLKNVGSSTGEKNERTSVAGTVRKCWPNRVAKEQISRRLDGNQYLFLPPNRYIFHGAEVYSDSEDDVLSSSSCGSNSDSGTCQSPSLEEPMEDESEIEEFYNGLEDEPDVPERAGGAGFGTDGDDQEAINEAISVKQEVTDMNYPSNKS
Description: SIRT-1 activation/inhibition was measured using the SIRT 1 Direct fluorescent Screening Assay kit (Catalog No. 10010401) and instructions provided therein of Cayman Chemical Company, 1180 East Ellsworth Road, Ann Arbor, Mich. 48108 USA. (http://www.caymanchem.com/pdfs/10010401.pdf)

[1] = test system: 3T3-L1 mouse adipocyte cells; assay: Adipogenesis inhibitory assay (Oil Red-O staining); format: cell-based; settings: for IC50: Mus musculus, 3T3-L1, Oil Red-O, OD 492 nm, read-out: IC50, inhibition of adipogenesis; for Adipogenesis inhibitory potential relative to Resveratrol: times more effective / superior than resveratrol
Description: A common assay to measure adipocyte differentiation in cell culture is with the dye Oil Red-O, which is a lipid-soluble red dye. Since terminal differentiation of adipocytes is accompanied by the accumulation of great amounts of lipids in large cytoplasmic vesicles, a strong, bright, staining of the cytoplasm with this dye is a reliable indicator of adipocyte differentiation.
3T3-L1 mouse adipocyte cells are seeded at a density of 5000 cell/200 μl of adipocyte induction medium in a 96 well plate. After 48 hrs varying concentrations of the sample are added. After 72 hrs, the medium is changed to adipocyte progression medium along with the sample. The medium is similarly changed after another 48 hours. The plates are washed gently after 48 hrs with 100 μl of PBS. 100 μl of 10% formalin is used to fix the cells for 30 min keeping at RT. The cells are then washed twice with 60% isopropanol gently. 100 μl of clear Oil red O stain is added to the wells & kept for staining for 1 hr. The cells are then washed with 70% Ethanol twice, once with PBS and air dried. Then 100 μl of 4% triton×100 in isopropanol is added to all the wells covered tightly & kept it in a shaker for 20 min at […]. The OD reading is taken at 492 nm in microplate reader.
The results are expressed as IC50 values using Graphpad prism software. The percentage of inhibition of adipogenesis is calculated as follows,
Where C-absorbance due to adipogenesis in untreated cells T-absorbance due to adipogenesis in sample treated cells
Note: IC50 is the concentration required for 50% inhibition of adipogenesis. Lower IC50 indicates better efficacy.

[2] = test system: Propionibacterium acnes ATCC 11827; assay: Broth dilution method, inhibitory concentration (IC50, IC100); format: cell-based; settings: for inhibition at 16.6 µg/mL / inhibition at 41.6 µg/mL / inhibition at 83.3 µg/mL / inhibition at 166 µg/mL / inhibition at 332 µg/mL / IC50 / inhibition at 498 µg/mL: Cutibacterium acnes, ATCC11827
Source text: Method: Broth dilution method to evaluate the inhibitory concentration (IC).
Materials • 1. Propionibacterium acnes ATCC: 11827 • 2. Physiological saline or Buffered peptone water (BPW). • 3. Reinforced clostridium medium (RCM) Hi-media • 4. Actinomyces broth (AC broth) Hi-media • 5. Anaerobic chamber. • 6. Gassing manifold Nitrogen, mixed gases. • 7. Spectrophotometer (600 nm to 625 nm). • 8. Sterile tubes • 9. Micro Pipette • 10. Sterile micro tips. • 11. (DMSO) dimethylsulphoxide
The strain Propionibacterium acnes (ATCC 11827) was obtained from ATCC. The inhibitory concentration (IC) of the given sample was determined by broth dilution method according to NCCLS guidelines. The IC50 was defined as that concentration of compound that reduced bacterial growth by 50% as determined spectrophotometrically. IC100 was defined as the lowest concentration of compound that inhibited bacterial growth by 100%. Resveratrol and 3-Hydroxypsterostilbene are water insoluble. Therefore samples were dissolved in DMSO and than added to Actinomyces broth to a final concentration of 0-500 mg/L. Twenty-four hour cultures of P.acnes were adjusted to 1×10^8 cfu/ml using McFarland standards and inoculated to Actinomycetes broth containing a specific concentration of compound. Controls containing just DMSO were also included in the test. Cultures were incubated anaerobically at 37° C. and read spectrophotometrically at 600 nm both at 24 h and 48 h incubation periods. IC50 and IC100 values were calculated from these observations.

[3] = 16.6 mg/L, 24 h, IC n = n % inhibition of bacterial growth
[4] = 16.6 mg/L, 48 h, IC n = n % inhibition of growth
[5] = 41.6 mg/L, 24 h, IC n = n % inhibition of growth
[6] = 41.6 mg/L, 48 h, IC n = n % inhibition of growth
[7] = 83.3 mg/L, 24 h, IC n = n % inhibition of growth
[8] = 83.3 mg/L, 48 h, IC n = n % inhibition of growth
[9] = 166 mg/L, 24 h, IC n = n % inhibition of growth
[10] = 166 mg/L, 48 h, IC n = n % inhibition of growth
[11] = 332 mg/L, 24 h, IC n = n % inhibition of growth
[12] = 332 mg/L, 48 h, IC n = n % inhibition of growth
[13] = P. acnes ATCC 11827, 24 h, read-out: IC50 24 h
[14] = P. acnes ATCC 11827, 48 h, read-out: IC50 48 h

SMILES | activation at 1 µg/mL (SIRT1 polypeptide) [%] | activation at 10 µg/mL (SIRT1 polypeptide) [%] | IC50 [1] [µM] | OD @ 600 nm 24 h ([2]; 16.6 mg/L, 24 h, dilution 1:2) | OD @ 600 nm 48 h ([2]; 16.6 mg/L, 48 h, dilution 1:2) | OD @ 600 nm 24 h ([2]; 41.6 mg/L, 24 h, dilution 1:2) | OD @ 600 nm 48 h ([2]; 41.6 mg/L, 48 h, dilution 1:2) | Concentration showing 100% inhibition of Propionibacterium acnes ([2]; 24 hours of incubation) [mg/mL] | Concentration showing 100% inhibition of Propionibacterium acnes ([2]; 48 hours of incubation) [mg/mL] | inhibition at 41.6 µg/mL [2, 5] [%] | inhibition at 41.6 µg/mL [2, 6] [%] | inhibition at 83.3 µg/mL [2, 7] [%] | inhibition at 83.3 µg/mL [2, 8] [%] | inhibition at 166 µg/mL [2, 9] [%] | inhibition at 166 µg/mL [2, 10] [%] | inhibition at 332 µg/mL [2, 11] [%] | inhibition at 332 µg/mL [2, 12] [%] | IC50 [2, 13] [µg/mL] | IC50 [2, 14] [µg/mL] | IC100 24 h ([2]; P. acnes ATCC 11827, 24 h) [mg/L] | other results
COc1cc(/C=C/c2ccc(O)c(O)c2)cc(OC)c1 [3-hydroxypterostilbene] | 224 | 669 | 0.00483 | 0.526 | 0.443 | 0.352 | 0.338 | 83.3 | 83 | 62 | 62 | 98 | 98 | 100 | 100 | 100 | 100 | 33.5 (≈ 123 µM) | 35.8 (≈ 131 µM) | 83.3 | Adipogenesis inhibitory potential relative to Resveratrol [1]: about 5000 times; Adipogenesis inhibitory potential relative to Resveratrol ([1]; listed as 3,5-dimethoxy-3,4′-dihydroxystilbene): 5000 times; OD @ 600 nm 24 h ([2]; 83.3 mg/L, 24 h, dilution As such): 0.047; OD @ 600 nm 48 h ([2]; 83.3 mg/L, 48 h, dilution As such): 0.073; inhibition at 16.6 µg/mL [2, 3]: 45%; inhibition at 16.6 µg/mL [2, 4]: 45%; IC100 48 h ([2]; P. acnes ATCC 11827, 48 h): 83.0 mg/L
Oc1ccc(/C=C/c2cc(O)cc(O)c2)cc1 [Resveratrol, 3,4′,5-trihydroxy-trans-stilbene] | 138 | 291 | 25 | 1.027 | 0.884 | 0.777 | 0.593 | 332 | 498 | 17 | 27 | 55 | 30 | 75 | 68 | 100 | 85 | 83 (≈ 364 µM) | 120 (≈ 526 µM) | 332.0 | (IC) Inhibitory concentration [2, 3]: No inhibition; (IC) Inhibitory concentration [2, 4]: No inhibition; OD @ 600 nm 24 h ([2]; 83.3 mg/L, 24 h, dilution 1:2): 0.423; OD @ 600 nm 48 h ([2]; 83.3 mg/L, 48 h, dilution 1:2): 0.573; OD @ 600 nm 24 h ([2]; 166 mg/L, 24 h, dilution 1:2): 0.232; OD @ 600 nm 48 h ([2]; 166 mg/L, 48 h, dilution 1:2): 0.268; OD @ 600 nm 24 h ([2]; 332 mg/L, 24 h, dilution As such): 0.00; OD @ 600 nm 48 h ([2]; 332 mg/L, 48 h, dilution As such): 0.11; OD @ 600 nm 48 h ([2]; 498 mg/L, 48 h, dilution As such): 0.00; inhibition at 498 µg/mL ([2]; 498 mg/L, 24 h, IC n = n % inhibition of growth): 100%; inhibition at 498 µg/mL ([2]; 498 mg/L, 48 h, IC n = n % inhibition of growth): 100%; IC100 48 h ([2]; P. acnes ATCC 11827, 48 h): 498 mg/L
